Test system: 945468-187-T-J2-PDC spheroids viability
Assay: Anticancer human tumor 945468-187-T-J2-PDC patient-derived rectal carcinoma cell line growth inhibition [PI3K]
Settings: spheroids with HUVEC and MSC; for IC50: curve of first compound; for viability, T/C: stronger effect = lower value
Excerpt: Combinatorial screen of targeted agents with the PI3K inhibitors inavolisib, alpelisib, duvelisib, and copanlisib in multi-cell type tumor spheroids
A high-throughput screen of multi-cell type tumor spheroids was designed to identify active combinations of targeted small molecules and PI3K pathway inhibitors. Complex spheroids include a stromal component modeled by human endothelial cells (HUVEC) and fibroblasts modeled by human mesenchymal stem cells (MSCs). The concentration ranges selected for each drug and investigational agent were based upon clinically achievable concentrations if the clinical Cmax of the agent was known.
Compounds. The drugs and investigational agents: inavolisib (NSC800729), alpelisib (NSC765974), duvelisib (NSC772469), copanlisib (NSC816437), ipatasertib (NSC767898), afuresertib (NSC778305), talazoparib (NSC767125), sapanisertib (NSC764658), selumetinib (NSC741078), tovorafenib (DAY101, NSC766906), vemurafenib (NSC761431), ravoxertinib (NSC781343), sotorasib (NSC818433), MRTX1133 (NSC 836407), abemaciclib (NSC 768073), palbociclib (NSC758247), venetoclax (NSC 766270), SY5609 (NSC837396), enzalutamide (NSC755605), and darolutamide (NSC825331), were obtained from the National Cancer Institute (NCI) Developmental Therapeutics Program Chemical Repository. The FDA-approved anticancer drug set is available from the NCI Developmental Therapeutics Program. […] The stock solutions were prepared in dimethyl sulfoxide (DMSO, Sigma-Aldrich, St. Louis, MO, cat. D2650) at 800-fold the tested concentration and stored at -70 degrees C prior to their use. All drugs and investigational agents were tested over a range starting from a high concentration at or near the clinical Cmax and decreasing in half-log increments. If the clinical Cmax for an agent had not been determined, the highest concentration tested was 10 microM.
Cell Culture. All cells were maintained in an incubator at 37 degrees C and 5% CO2 with 95% humidity. The PDC lines were cultured according to standard operating procedures established by the NCI PDMR (https://pdmr.cancer.gov/sops/default.htm). All PDCs were thawed and cultured in Matrigel-coated flasks prepared with a working solution of 1X Ham's F-12 nutrient mix, without supplementation (Invitrogen, Waltham, MA, cat. 11765054), 100 U/mL penicillin-streptomycin (Invitrogen, cat. 15140122), and 2.5% Matrigel (Corning Inc., Corning, NY, cat. 354248) for the first three passages. The 354836-022-R-J1-PDC, 475296-252-R-J1-PDC, and 997726-040-R-J2-PDC lines were cultured in 6A media, which includes advanced DMEM/F-12 (Thermo Fisher Scientific, cat. 12634028), 10 mM HEPES (Thermo Fisher Scientific, cat. 15630080), 1X GlutaMAX supplement (Thermo Fisher Scientific, cat. 35050061), 0.1 mg/mL primocin (InvivoGen, San Diego, CA, cat. ant-pm-2), 10% defined fetal bovine serum, heat inactivated (HyClone Laboratories Inc., Logan, UT, cat. SH30070.03HI), 50% L-WRN conditioned media (ATCC, cat. CRL-3276), 1.25 mM N-Acetyl-L-cysteine (Sigma-Aldrich, cat. A9165), 10 mM nicotinamide (Sigma-Aldrich, cat. N0636), 1X B-27 supplement (Thermo Fisher Scientific, cat. 17504044), 1X N-2 supplement (Thermo Fisher Scientific, cat. 17502048), and 10 microM Y-27632 dihydrochloride (Tocris Bioscience, Bristol, United Kingdom, cat. 1254). The 624824-186-R-J2-PDC line was cultured in 6C/Colon 1B media, which includes all 6A media components plus 50 ng/mL human EGF recombinant protein (Thermo Fisher Scientific, cat. PHG0311). […]
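Also: spheroids exposed to compounds for seven days before reading.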

`Cn1cnc2c(F)c(Nc3ccc(Br)cc3Cl)c(C(=O)NOCCO)cc21` + CC(Nc1ccc2c(c1)OCCn1cc(N3C(=O)OCC3C(F)F)nc1-2)C(N)=O was tested, and the IC50 (second compound 0.00316 µM) was over 3 µM, the IC50 (second compound 0.01 µM) was over 3 µM and the IC50 (second compound 0.0316 µM) was over 3 µM. It also gave an IC50 (second compound 0.1 µM) of over 3 µM, an IC50 (second compound 0.316 µM) of over 3 µM and an IC50 (second compound 1 µM) of 0.714 µM. It also gave a viability, T/C (second compound 0.00316 µM, first compound 0.00949 µM) of 121%, a viability, T/C (second compound 0.00316 µM, first compound 0.03 µM) of 86.4% and a viability, T/C (second compound 0.00316 µM, first compound 0.0949 µM) of 114%. The viability, T/C (second compound 0.00316 µM, first compound 0.3 µM) was 75.8%, the viability, T/C (second compound 0.00316 µM, first compound 0.949 µM) was 70.7% and the viability, T/C (second compound 0.00316 µM, first compound 3 µM) was 74.5%. It also gave a viability, T/C (second compound 0.01 µM, first compound 0.00949 µM) of 92.2%, a viability, T/C (second compound 0.01 µM, first compound 0.03 µM) of 101% and a viability, T/C (second compound 0.01 µM, first compound 0.0949 µM) of 92.2%. It also gave a viability, T/C (second compound 0.01 µM, first compound 0.3 µM) of 89.4%, a viability, T/C (second compound 0.01 µM, first compound 0.949 µM) of 74.9% and a viability, T/C (second compound 0.01 µM, first compound 3 µM) of 78.5%. For the same compound, the viability, T/C (second compound 0.0316 µM, first compound 0.00949 µM) was 121%, the viability, T/C (second compound 0.0316 µM, first compound 0.03 µM) was 99.6% and the viability, T/C (second compound 0.0316 µM, first compound 0.0949 µM) was 112%. The viability, T/C (second compound 0.0316 µM, first compound 0.3 µM) was 93.7%, the viability, T/C (second compound 0.0316 µM, first compound 0.949 µM) was 78.8% and the viability, T/C (second compound 0.0316 µM, first compound 3 µM) was 74.5%. The viability, T/C (second compound 0.1 µM, first compound 0.00949 µM) was 88.9%, the viability, T/C (second compound 0.1 µM, first compound 0.03 µM) was 102% and the viability, T/C (second compound 0.1 µM, first compound 0.0949 µM) was 81.2%. It also gave a viability, T/C (second compound 0.1 µM, first compound 0.3 µM) of 80.4%, a viability, T/C (second compound 0.1 µM, first compound 0.949 µM) of 75.1% and a viability, T/C (second compound 0.1 µM, first compound 3 µM) of 74.2%. The viability, T/C (second compound 0.316 µM, first compound 0.00949 µM) was 69.9%, the viability, T/C (second compound 0.316 µM, first compound 0.03 µM) was 88.6% and the viability, T/C (second compound 0.316 µM, first compound 0.0949 µM) was 72.4%. For the same compound, the viability, T/C (second compound 0.316 µM, first compound 0.3 µM) was 75.6%, the viability, T/C (second compound 0.316 µM, first compound 0.949 µM) was 75.9% and the viability, T/C (second compound 0.316 µM, first compound 3 µM) was 66.1%. For the same compound, the viability, T/C (second compound 1 µM, first compound 0.00949 µM) was 75.7%, the viability, T/C (second compound 1 µM, first compound 0.03 µM) was 72% and the viability, T/C (second compound 1 µM, first compound 0.0949 µM) was 72.8%. It also gave a viability, T/C (second compound 1 µM, first compound 0.3 µM) of 65.2%, a viability, T/C (second compound 1 µM, first compound 0.949 µM) of 45% and a viability, T/C (second compound 1 µM, first compound 3 µM) of 37.6%.

Source: PubChem BioAssay AID1963972 (Molecular Pharmacology Branch, DTP, NCI, 2024)
